We go through ten molecules from patent US4465772A, “Method for disinfecting and washing of immobilized lactase” (priority 1980, dated 1984).

Test [1] addresses T1, immobilized lactase (lactase derived from Aspergillus oryzae) (Aspergillus oryzae, UniProt Q2UCU3).
T1 construct: host or cells: Aspergillus oryzae
Description: Residual enzyme activity of immobilized lactase after immersion in disinfectant solutions. It is filed as biochemical. The conditions noted are these: for Residual enzyme activity (relative ratio, %) after immersion for 7 days / Residual enzyme activity (relative ratio, %) after immersion for 30 days / remaining activity at 1 % / remaining activity at 0.1 % / remaining activity at 70 % / remaining activity at 0.01 %: 18°-20° C.; for remaining activity at 0.1 %: chemical 0.1%; for remaining activity at 70 %: chemical 70%; for remaining activity at 0.01 %: chemical 0.01%. From the text:
As the immobilized lactase was used one prepared by using a macroporous phenol-formaldehyde type amphoteric ion-exchange resin (particle size: 250-840μ) as the carrier, making the same adsorb the lactase derived from Aspergillus oryzae and carrying out the glutaraldehyde treatment to cause immobilization by covalent linkage [EPC publication No. 26672 (published on Apr. 8, 1981)].
(2) Residual enzyme activity
[…] […] The sample was sufficiently washed with an excessively large amount of water and a 0.05 M acetate buffer solution at pH 4.5 and then the residual activity was measured.
In 30 ml of lactose solution having a concentration of 13.3 (W/V) % prepared by dissolving lactose in a 0.05 M acetate buffer solution of pH 4.5 was immersed 0.2-0.25 ml of an immobilized lactase. The reaction was allowed to proceed at 30° C. under reciprocating shaking (more than 100 rpm with an amplitude larger than 3.5 cm) for 15 minutes. Then the amount of glucose produced was determined with a glucose oxidase-peroxidase-dye system. The amount of enzyme which produces 1μ mol of glucose per minute is defined as one unit (1 ILU). The dry weight of an immobilized lactase is determined as mentioned below. That is, after the termination of the reaction, the immobilized lactase was filtered, dried at 50° C. under reduced pressure for 8 hours or more, placed in a desiccator at room temperature (18°-25° C.) for 1.5 hours or more, the weight thereof was then measured and this value is regarded as the dry weight of the immobilized lactase. The activity of an immobilized lactase is represented by the unit per gram of dry weight (1 ILU/g-IML).

Test [2] concerns Mixture of five strains separated from the putrefied milk. Kind of test: Disinfecting power (number of viable cells). As to conditions: initial 10^5-10^6/ml. Type of test: cell-based. As to the method: (1) Disinfecting power (number of viable cells)
Milk obtained commercially was putrefied. Mixture of five strains separated from the putrefied milk was suspended in a 0.2 % bouillon solution (pH: 7.0) so that the number of viable cells attains to 10^5 -10^6 /ml. To this suspension was added an equal amount of an undiluted solution having a concentration of each chemical twice as high as that to be applied. A cotton plug was corked to each container and sampling was carried out after 1 hour and 7 days. The sample was diluted at need and plating on the standard agaragar culture medium was effected to count the number of colonies.
The symbols related to the number of viable cells designate as follows: […]

Where [3] appears, read: chemical 1%, relative to 860 ILU/g-IML before immersion.
[4] abbreviates: 168 h, chemical 1%, relative to 860 ILU/g-IML before immersion, read-out: Residual enzyme activity (relative ratio, %) after immersion for 7 days.
Where [5] appears, read: 720 h, chemical 1%, relative to 860 ILU/g-IML before immersion, read-out: Residual enzyme activity (relative ratio, %) after immersion for 30 days.
Setting [6] is: 168 h, relative to 860 ILU/g-IML, read-out: Residual enzyme activity (relative ratio, %) after immersion for 7 days.
[7] abbreviates: 720 h, relative to 860 ILU/g-IML, read-out: Residual enzyme activity (relative ratio, %) after immersion for 30 days.
Where [8] appears, read: chemical 10%, relative to 860 ILU/g-IML.
Setting [9] is: concentration of chemical 0.01%.

Read-outs that look alike come from different tables or passages of the source.

T1 sequence (Q2UCU3 19-1005): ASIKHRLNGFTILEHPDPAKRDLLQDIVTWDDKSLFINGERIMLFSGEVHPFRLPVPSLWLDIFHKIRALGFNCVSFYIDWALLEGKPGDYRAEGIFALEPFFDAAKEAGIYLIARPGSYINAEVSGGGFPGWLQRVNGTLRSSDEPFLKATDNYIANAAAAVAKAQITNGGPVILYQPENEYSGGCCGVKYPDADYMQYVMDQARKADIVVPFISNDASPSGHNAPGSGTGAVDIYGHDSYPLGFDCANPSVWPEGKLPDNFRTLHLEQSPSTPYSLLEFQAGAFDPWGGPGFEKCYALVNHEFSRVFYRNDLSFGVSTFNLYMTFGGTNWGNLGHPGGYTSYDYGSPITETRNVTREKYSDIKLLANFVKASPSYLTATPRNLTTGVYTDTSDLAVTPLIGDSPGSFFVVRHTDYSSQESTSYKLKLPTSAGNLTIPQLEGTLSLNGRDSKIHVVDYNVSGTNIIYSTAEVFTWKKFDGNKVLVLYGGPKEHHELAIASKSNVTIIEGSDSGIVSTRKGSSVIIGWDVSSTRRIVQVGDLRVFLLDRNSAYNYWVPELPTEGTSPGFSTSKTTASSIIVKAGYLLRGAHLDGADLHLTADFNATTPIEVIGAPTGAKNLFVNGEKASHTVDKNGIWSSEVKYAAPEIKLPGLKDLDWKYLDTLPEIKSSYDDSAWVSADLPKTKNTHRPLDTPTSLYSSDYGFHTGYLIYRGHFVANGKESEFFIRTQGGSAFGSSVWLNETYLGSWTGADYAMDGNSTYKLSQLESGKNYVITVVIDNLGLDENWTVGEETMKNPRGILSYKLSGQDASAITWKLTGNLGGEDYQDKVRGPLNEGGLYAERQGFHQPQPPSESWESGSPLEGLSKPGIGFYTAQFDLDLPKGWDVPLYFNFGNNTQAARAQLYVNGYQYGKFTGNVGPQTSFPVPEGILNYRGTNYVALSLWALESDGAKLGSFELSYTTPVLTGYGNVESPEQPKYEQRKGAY

As for `OO` [35% H2 O2 solution, hydrogen peroxide], in test [1] (setting [3]), the “Residual enzyme activity (relative ratio, %) after immersion for 7 days” value stood at 100% and the “Residual enzyme activity (relative ratio, %) after immersion for 30 days” value is 98%. Besides, in test [2] (concentration of chemical 1%), the “Number of viable cells after 1 hr.” value was “⊖” and the “Number of viable cells after 7 days” value is “⊖”.

For the molecule `CC(=O)O` [Acetic acid], the remaining activity at 1 % in test [1] (setting [4]) is 102%; in test [1] (setting [5]), 100%. Further, the “Number of viable cells after 1 hr.” value in test [2] (concentration of chemical 1%) is recorded as “⊖”. Besides, in test [2] (concentration of chemical 1%), the “Number of viable cells after 7 days” value is recorded as “⊖”.

Turning to `CC(=O)C1C(=O)C=C(C)OC1=O` (stereo not shown) [Dehydroacetic acid], in test [1] (setting [6]), the remaining activity at 0.1 % was 98%. Also, in test [1] (setting [7]), the remaining activity at 0.1 % is 102%. Also, in test [2] (concentration of chemical 0.1%), the “Number of viable cells after 1 hr.” value is reported as “⊖” and the “Number of viable cells after 7 days” value is reported as “⊖”.

Turning to `CCO` [Ethyl alcohol], the “decrease of activity of immobilized lactase on immersion” value (“decrease” below) in test [1] (70% solution, immersed for a long period at 18°-20° C.) is listed as “decrease of activity to some extent”. For the same molecule, the remaining activity at 70 % in test [1] (setting [6]) amounted to 84%; in test [1] (setting [7]), 67%. For the same molecule, the “Number of viable cells after 1 hr.” value in test [2] (concentration of chemical 70%) was “⊖”. Moreover, the “Number of viable cells after 7 days” value in test [2] (concentration of chemical 70%) is reported as “⊖”.

As for `O=CCCCC=O` [Glutaraldehyde], the remaining activity at 1 % in test [1] (setting [4]) turned out to be 102%. Further, the remaining activity at 1 % in test [1] (setting [5]) came to 98%. In test [2] (concentration of chemical 1%), the “Number of viable cells after 1 hr.” value is reported as “⊖” and the “Number of viable cells after 7 days” value is on record as “⊖”.

With `CC(O)C(=O)O` (stereo not shown) [Lactic acid], in test [1] (1% solution, five months at room temperature (18°-25° C.)), the “decrease” value is “completely no decrease of activity”. The remaining activity at 1 % in test [1] (setting [4]) was 103%. For the same molecule, in test [1] (setting [5]), the remaining activity at 1 % was found to be 101%. In test [2] (concentration of chemical 1%), the “Number of viable cells after 1 hr.” value is listed as “⊖ to ⊕” and the “Number of viable cells after 7 days” value was “⊖”.

Turning to `O=C(O)CC(O)C(=O)O` (stereo not shown) [Malic acid], the remaining activity at 1 % was determined as 101% in test [1] (setting [4]) and 100% in test [1] (setting [5]). Moreover, in test [2] (concentration of chemical 1%), the “Number of viable cells after 1 hr.” value is “⊖”. Further, the “Number of viable cells after 7 days” value in test [2] (concentration of chemical 1%) is recorded as “⊖”.

Consider `C/C=C/C=C/C(=O)[O-].[K+]` [Potassium sorbate], for which, in test [1] (setting [4]), the remaining activity at 1 % stood at 103%. In addition, in test [1] (setting [5]), the remaining activity at 1 % turned out to be 101%. In test [2] (concentration of chemical 1%), the “Number of viable cells after 1 hr.” value is listed as “⊖” and the “Number of viable cells after 7 days” value is given as “⊖”.

With `[Cl-].[Na+]` [Sodium chloride], in test [1] (setting [8]), the “Residual enzyme activity (relative ratio, %) after immersion for 7 days” value is 100% and the “Residual enzyme activity (relative ratio, %) after immersion for 30 days” value is on record as 98%. Also, in test [2] (concentration of chemical 10%), the “Number of viable cells after 1 hr.” value is listed as “⊖ to ⊕” and the “Number of viable cells after 7 days” value is reported as “⊖”.

Consider `OCl` [Sodium hypochlorite], for which the “decrease” value in test [1] (0.01% solution, immersed for a long period at 18°-20° C.) is given as “decrease of activity to some extent”. For the same molecule, the remaining activity at 0.01 % in test [1] (setting [6]) amounted to 96%. Further, the remaining activity at 0.01 % in test [1] (setting [7]) was found to be 92%. In test [2] (setting [9]), the “Number of viable cells after 1 hr.” value is on record as “⊖” and the “Number of viable cells after 7 days” value is reported as “⊖”.
